pIC50: −log10 of the molar value.

The target in one test is T1, kinase-domain human PKCι (Homo sapiens, UniProt P41743).
T1 construct: Recombinant, kinase-domain human PKCι is expressed and purified in-house; made in house
T1 sequence (P41743 254-522 limits assumed): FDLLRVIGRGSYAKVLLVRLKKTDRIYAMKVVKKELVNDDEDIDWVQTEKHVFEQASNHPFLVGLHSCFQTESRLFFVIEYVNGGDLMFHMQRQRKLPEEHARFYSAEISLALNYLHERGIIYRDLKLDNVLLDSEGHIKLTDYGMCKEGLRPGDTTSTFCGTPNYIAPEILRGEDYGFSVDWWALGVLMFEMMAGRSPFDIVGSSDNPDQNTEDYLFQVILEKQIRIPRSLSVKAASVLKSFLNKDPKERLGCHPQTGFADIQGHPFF
Kind of test: PKCι IC50 IMAP fluorescence polarisation assay, kinase-domain enzyme. The class given is biochemical. The following applies: kinase domain PKCi at 2 μM ATP; read-out: IC50 in IMAP assay against kinase domain PKCi. Background: In fluorescence polarisation assays a small probe gives low polarisation when free and higher when bound to something large.
Take `Cc1csc2c(OC[C@@H](N)Cc3ccccc3)nc(-c3ccncc3)nc12` [compound 481, (S)-1-(7-Methyl-2-pyridin-4-yl-thieno[3,2-d]pyrimidin-4-yloxymethyl)-2-phenyl-ethylamine]: the negative-log IC50 (pIC50) – broadly, −log10 of the IC50, conventionally taken in molar units – was 4.40 to 5.00. For the compound `Cc1csc2c(N[C@H]3CCNC3)nc(-c3ccncc3)nc12` [compound 364, (7-Methyl-2-pyridin-4-yl-thieno[3,2-d]pyrimidin-4-yl)-(S)-pyrrolidin-3-yl-amine], the pIC50 was 5.00 to 6.00. On the same count and under the same terms, to `Cc1cc(C)c2c(n1)sc1c(N3CCCNCC3)nc(-c3ccncc3)nc12` [compound 381, 4-[1,4]Diazepan-1-yl-7,9-dimethyl-2-pyridin-4-yl-pyrido[3′,2′:4,5]thieno[3,2-d]pyrimidine] belongs 5.00 to 6.00. Same read-out and setting: with `Cc1cc(C)c2c(n1)sc1c(N3CCNCC3)nc(-c3ccncc3)nc12` [compound 380, 7,9-Dimethyl-4-piperazin-1-yl-2-pyridin-4-yl-pyrido[3′,2′:4,5]thieno[3,2-d]pyrimidine] the figure was 5.00 to 6.00. Regarding `Cc1cc(C)c2c(n1)sc1c(NC[C@H](C)N)nc(-c3ccncc3)nc12` [compound 382, (S)-N*1*-(7,9-Dimethyl-2-pyridin-4-yl-pyrido[3′,2′:4,5]thieno[3,2-d]pyrimidin-4-yl)-propane-1,2-diamine], the pIC50 is 6.00 to 7.00.

With `CN(CCN)c1nc(-c2ccncc2)nc2c1sc1cccc(Cl)c12` [compound 385, N*1*-(9-Chloro-2-pyridin-4-yl-benzo[4,5]thieno[3,2-d]pyrimidin-4-yl)-N*1*- methyl-ethane-1,2-diamine], the negative logarithm of the IC50 (pIC50) is 5.00 to 6.00. On the same count and under the same terms, to `C[C@@H](N)CNc1nc(-c2ccncc2)nc2cc(-c3ccc(C(C)(C)C)cc3)sc12` [compound 358, (R)-N*1*-[6-(4-tert-Butyl-phenyl)-2-pyridin-4-yl-thieno[3,2-d]pyrimidin-4-yl]-propane-1,2-diamine] belongs 4.40 to 5.00.

The test is the same for the next values; noted with them: kinase domain PKCi at 2 μM ATP; read-out: IC50 in IMAP assay against kinase domain PKCi (Activity).
Regarding `Cc1ccccc1C[C@H](N)COc1nc(-c2ccncc2)nc2sc3c(c12)CCCC3` [compound 174, (S)-1-(2-Methyl-benzyl)-2-(2-pyridin-4-yl-5,6,7,8-tetrahydro-benzo[4,5]thieno[2,3-d]pyrimidin-4-yloxy)-ethylamine], the pIC50 was 5.00 to 6.00. Same read-out and setting: to `N[C@@H](COc1nc(-c2ccncc2)nc2sc3c(c12)CCCC3)c1ccccc1` [compound 147, (R)-1-Phenyl-2-(2-pyridin-4-yl-5,6,7,8-tetrahydro-benzo[4,5]thieno[2,3-d]pyrimidin-4-yloxy)-ethylamine] belongs 4.40 to 5.00; to `C[C@H]1CN(c2nc(-c3ccncc3)nc3sc4c(c23)CCCC4)CCN1` [compound 8, 4-((S)-3-Methyl-piperazin-1-yl)-2-pyridin-4-yl-5,6,7,8-tetrahydro-benzo[4,5]thieno[2,3-d]pyrimidine], 6.00 to 7.00; to `C[C@@H](N)CNc1nc(-c2ccncc2)nc2sc3c(c12)CCCC3` [compound 2, (R)-N*1*-(2-Pyridin-4-yl-5,6,7,8-tetrahydro-benzo[4,5]thieno[2,3-d]pyrimidin-4-yl)-propane-1,2-diamine], 6.00 to 7.00. As for `CC(C)CN1CCN(c2nc(-c3ccncc3)nc3sc4c(c23)CCCC4)CC1` [compound 134, 4-(4-Isobutyl-piperazin-1-yl)-2-pyridin-4-yl-5,6,7,8-tetrahydro-benzo[4,5]thieno[2,3-d]pyrimidine], the pIC50 was 4.40 to 5.00. Consider `Cc1sc2nc(-c3ccncc3)nc(NC[C@@H](C)N)c2c1C` [compound 38, (R)-N*1*-(5,6-Dimethyl-2-pyridin-4-yl-thieno[2,3-d]pyrimidin-4-yl)-propane-1,2-diamine], for which the negative-log IC50 (pIC50) is 5.00 to 6.00.

For `NCCNc1nc(-c2ccncc2F)nc2sc3c(c12)CCCC3` [compound 97, N*1*-[2-(3-fluoro-pyridin-4-yl)-5,6,7,8-tetrahydro-benzo[4,5]thieno [2,3-d]pyrimidin-4-yl]-ethane-1,2-diamine], the negative-log IC50 (pIC50) was 5.00 to 6.00.

In the case of `c1cc(-c2nc(N3CCCNCC3)c3c4c(sc3n2)CCCCC4)ccn1` [compound 86, 4-[1,4]Diazepan-1-yl-2-pyridin-4-yl-6,7,8,9-tetrahydro-5H-10-thia-1,3-diaza-benzo[a]azulene], the pIC50 is 6.00 to 7.00.

Regarding `c1cc(-c2nc(OC[C@H]3CCCN3)c3c4c(sc3n2)CCCC4)ccn1` [compound 153, 2-Pyridin-4-yl-4-((R)-1-pyrrolidin-2-ylmethoxy)-5,6,7,8-tetrahydro-benzo[4,5]thieno[2,3-d]pyrimidine], the pIC50 is 5.00 to 6.00. The same measure, in the same setting: to `Brc1ccc(CN2CCN(c3nc(-c4ccncc4)nc4sc5c(c34)CCCC5)CC2)cn1` [compound 128, 4-[4-(6-Bromo-pyridin-3-ylmethyl)-piperazin-1-yl]-2-pyridin-4-yl-5,6,7,8-tetrahydro-benzo[4,5]thieno[2,3-d]pyrimidine] belongs 4.40 to 5.00; to `NCCNc1nc(-c2cn[nH]c2)nc2sc3c(c12)CCCC3` [compound 181, N*1*-[2-(1H-Pyrazol-4-yl)-5,6,7,8-tetrahydro-benzo[4,5]thieno[2,3-d]pyrimidin-4-yl]-ethane-1,2-diamine], 6.00 to 7.00. Still for that read-out and setting: to `Cc1csc2c(NC[C@@H](N)Cc3ccccc3)nc(-c3ccncc3)nc12` [compound 302] belongs over 7.00. Same read-out and setting: with `c1n[nH]cc1-c1nc(N2CCNCC2)c2c3c(sc2n1)CCCC3` [compound 185, 4-Piperazin-1-yl-2-(1H-pyrazol-4-yl)-5,6,7,8-tetrahydro-benzo[4,5]thieno[2,3-d]pyrimidine] the figure was 6.00 to 7.00; with `Brc1ccc(CN2CCN(c3nc(-c4ccncc4)nc4sc5c(c34)CCCC5)CC2)cc1` [compound 117, 4-[4-(4-Bromo-benzyl)-piperazin-1-yl]-2-pyridin-4-yl-5,6,7,8-tetrahydro-benzo[4,5]thieno[2,3-d]pyrimidine], 4.40 to 5.00; with `COc1ccc(C[C@H](N)COc2nc(-c3ccncc3)nc3sc4c(c23)CCCC4)cc1` [compound 159, (S)-1-(4-methoxy-benzyl)-2-(2-pyridin-4-yl-5,6,7,8-tetrahydro-benzo[4,5]thieno [2,3-d]pyrimidin-4-yloxy)-ethylamine], 5.00 to 6.00. Turning to `c1cc(-c2nc(N3C[C@@H]4C[C@H]3CN4)c3c4c(sc3n2)CCCC4)ccn1` [compound 18, 4-(1S,4S)-2,5-Diaza-bicyclo[2.2.1]hept-2-yl-2-pyridin-4-yl-5,6,7,8-tetrahydro-benzo[4,5]thieno[2,3-d]pyrimidine], the negative logarithm of the IC50 (pIC50) was 6.00 to 7.00. The same measure, in the same setting: with `CC1CCc2c(sc3nc(-c4ccncc4)nc(NC[C@H](C)N)c23)C1` (stereo partly drawn) [compound 22, (S)-N*1*-(7-Methyl-2-pyridin-4-yl-5,6,7,8-tetrahydro-benzo[4,5]thieno[2,3-d]pyrimidin-4-yl)-propane-1,2-diamine] the figure was 5.00 to 6.00. Same read-out and setting: to `N[C@H](COc1nc(-c2ccncc2)nc2sc3c(c12)CCCC3)Cc1csc2ccccc12` [compound 177, (S)-1-Benzo[b]thiophen-3-ylmethyl-2-(2-pyridin-4-yl-5,6,7,8-tetrahydro-benzo[4,5]thieno[2,3-d]pyrimidin-4-yloxy)-ethylamine] belongs 4.40 to 5.00; to `CN(CCN)c1nc(-c2ccncc2)nc2sc3c(c12)CCCC3` [compound 15, N*1*-Methyl-N*1*-(2-pyridin-4-yl-5,6,7,8-tetrahydro-benzo[4,5]thieno[2,3-d]pyrimidin-4-yl)-ethane-1,2-diamine], 6.00 to 7.00.

Consider `CN1CCCN(c2nc(-c3ccncc3)nc3sc4c(c23)CCCC4)CC1` [compound 4, 4-(4-Methyl-[1,4]diazepan-1-yl)-2-pyridin-4-yl-5,6,7,8-tetrahydro-benzo[4,5]thieno[2,3-d]pyrimidine], for which the negative-log IC50 (pIC50) was 6.00 to 7.00. Turning to `CN1CCN(c2nc(-c3ccncc3)nc3sc4c(c23)CCCC4)CC1` [compound 125, 4-(4-Methyl-piperazin-1-yl)-2-pyridin-4-yl-5,6,7,8-tetrahydro-benzo[4,5]thieno[2,3-d]pyrimidine], the negative logarithm of the IC50 (pIC50) was 5.00 to 6.00. Same read-out and setting: with `N[C@H](COc1nc(-c2ccncc2)nc2sc3c(c12)CCCC3)CC1CCCCC1` [compound 157, (S)-2-Cyclohexyl-1-(2-pyridin-4-yl-5,6,7,8-tetrahydro-benzo[4,5]thieno[2,3-d]pyrimidin-4-yloxymethyl)-ethylamine] the figure was 5.00 to 6.00; with `N[C@H](COc1nc(-c2ccncc2)nc2sc3c(c12)CCCC3)Cc1c[nH]c2ccccc12` [compound 158, (S)-2-(1H-Indol-3-yl)-1-(2-pyridin-4-yl-5,6,7,8-tetrahydro-benzo[4,5]thieno[2,3-d]pyrimidin-4-yloxymethyl)-ethylamine], 4.40 to 5.00; with `N[C@H]1C[C@@H]1Nc1nc(-c2ccncc2)nc2sc3c(c12)CCCC3` [compound 11, (1S,2S)-N-(2-Pyridin-4-yl-5,6,7,8-tetrahydro-benzo[4,5]thieno[2,3-d]pyrimidin-4-yl)-cyclopropane-1,2-diamine], 4.40 to 5.00.

On to `Cc1ccc(C[C@H](N)COc2nc(-c3ccncc3)nc3sc4c(c23)CCCC4)cc1` [compound 166, (S)-1-(4-Methyl-benzyl)-2-(2-pyridin-4-yl-5,6,7,8-tetrahydro-benzo[4,5]thieno[2,3-d]pyrimidin-4-yloxy)-ethylamine], for which the pIC50 was 5.00 to 6.00.

In the case of `Oc1cccc(CN2CCN(c3nc(-c4ccncc4)nc4sc5c(c34)CCCC5)CC2)c1` [compound 126, 3-[4-(2-Pyridin-4-yl-5,6,7,8-tetrahydro-benzo[4,5]thieno[2,3-d]pyrimidin-4-yl)-piperazin-1-ylmethyl]-phenol], the negative-log IC50 (pIC50) was 4.40 to 5.00. The same measure, in the same setting: with `Cc1n[nH]c(C)c1-c1nc(NC[C@@H](C)N)c2c3c(sc2n1)CCCC3` [compound 193, (R)-N*1*-[2-(3,5-Dimethyl-1H-pyrazol-4-yl)-5,6,7,8-tetrahydro-benzo[4,5]thieno[2,3-d]pyrimidin-4-yl]-propane-1,2-diamine] the figure was 4.40 to 5.00.
